Data as given in ChEMBL document CHEMBL3763055, “Evaluation of synthetic coumarins for antiausterity cytotoxicity against pancreatic cancers” (Bioorg Med Chem Lett, 2016).
Calls of active or inactive are those of the source. The rule behind the calls is not given here.

Tests used:
[1] = Antiausterity activity against human PANC1 cells under nutrient deprived condition assessed as reduction in cell viability incubated for 24 hrs by WST-8 assay; assay type: functional, PANC-1
[2] = Cytotoxicity against human PANC1 cells in DMEM assessed as reduction in cell viability at 100 uM incubated for 24 hrs by WST-8 assay; assay type: cell-based; conditions: panc-1, 24 h
PANC-1 = test: Induction of apoptosis in human PANC1 cells under nutrient deprived condition at 50 uM after 24 hrs by ethidium bromide/acridine orange staining based fluorescence microscopy; assay type: functional, cell-based
[3] = Antiausterity activity against human MIAPaCa2 cells under nutrient deprived condition assessed as reduction in cell viability incubated for 24 hrs by WST-8 assay; assay type: functional, MIA PaCa-2
[4] = Antiausterity activity against human Capan1 cells under nutrient deprived condition assessed as reduction in cell viability incubated for 24 hrs by WST-8 assay; assay type: functional, CAPAN-1

| SMILES | PC50 [1] [µM] | Activity [2] | Activity (PANC-1) | PC50 [3] [µM] | PC50 [4] [µM] |
| --- | --- | --- | --- | --- | --- |
| CC(C)(CC(=O)/C=C/c1cccc(C(F)(F)F)c1)C1Cc2c(ccc3ccc(=O)oc23)O1 (configuration not stated) | 0.079 |  |  |  |  |
| CC(C)=CCC/C(C)=C/COc1cc2ccc(=O)oc2cc1O | 7.2 |  |  |  |  |
| CCCCCCCCOc1ccc2c(C)cc(=O)oc2c1C | >100 | Non-toxic |  |  |  |
| CCCCCCCCCCCCOc1ccc2c(CC)cc(=O)oc2c1 | 51 | Non-toxic |  |  |  |
| CCCCCCCCn1cc(COc2ccc3ccc(=O)oc3c2)nn1 | >100 | Non-toxic |  |  |  |
| CCCCCCCCOc1ccc2c(CC)cc(=O)oc2c1 | 29 | Non-toxic |  |  |  |
| CCCCCCCCCCCCOc1ccc2c(C(F)(F)F)cc(=O)oc2c1C | >100 | Non-toxic |  |  |  |
| CC(C)(CC(=O)/C=C/c1ccc(C(F)(F)F)cc1)C1Cc2c(ccc3ccc(=O)oc23)O1 (configuration not stated) | 0.023 |  |  |  |  |
| O=c1ccc2ccc(OCc3cn(Cc4ccccc4)nn3)cc2o1 | >100 | Non-toxic |  |  |  |
| Cc1cc(=O)oc2cc(OCC3CC3)ccc12 | >100 | Non-toxic |  |  |  |
| CCCCCCCCCCCCCCCCOc1ccc2c(C(F)(F)F)cc(=O)oc2c1C | >100 | Non-toxic |  |  |  |
| O=c1ccc2ccc(OCc3cn(Cc4cccc(C(F)(F)F)c4)nn3)cc2o1 | 29 | Non-toxic | Active | 8.5 | 18 |
| CCCCCCCCCCCCCCCCOc1ccc2c(C(F)(F)F)cc(=O)oc2c1 | >100 | Non-toxic |  |  |  |
| CCCCCCCCOc1ccc2c(C)cc(=O)oc2c1 | 48 | Non-toxic |  |  |  |
| CCCCCCCCCCCCOc1ccc2c(C)cc(=O)oc2c1 | >100 | Non-toxic |  |  |  |
| O=c1ccc2ccc(OCc3cn(Cc4ccc(C(F)(F)F)cc4)nn3)cc2o1 | >100 | Non-toxic |  | 9.6 | >100 |
| CCCCCCCCCCCCCCOc1ccc2c(C)cc(=O)oc2c1 | >100 | Non-toxic |  |  |  |
| CCCCCCCCOc1ccc2c(C(F)(F)F)cc(=O)oc2c1 | 63 | Non-toxic |  |  |  |
| CC(C)c1ccc(Cn2cc(COc3ccc4ccc(=O)oc4c3)nn2)cc1 | >100 | Non-toxic |  |  |  |
| COc1ccc(Cn2cc(COc3ccc4ccc(=O)oc4c3)nn2)cc1 | >100 | Non-toxic |  |  |  |
